Laboratory results reported in the NIST ThermoML archive (doi:10.1021/je700362q).
± gives the expanded uncertainty stated by the source.

Legend:
[1] = 298.15 K; 101.33 kPa; Liquid; Vibrating tube method
[2] = refractive index (Na D-line) (dimensionless); conditions: 298.15 K; 101.33 kPa; Liquid; Standard Abbe refractometry

mass density [1] [kg/m3]	refractive index [2]	SMILES
1058.5 ± 0.15	1.52581 ± 0.00073	c1ccsc1 [thiophene]
1104.42 ± 8.5	1.43329 ± 0.0012	CCCCCCCC[n+]1ccn(C)c1.F[B-](F)(F)F [1-methyl-3-octylimidazolium tetrafluoroborate]
764.97 ± 0.31	1.42048 ± 0.00075	CC1CCCCC1 [methylcyclohexane]

SMILES	mass density [1] [kg/m3]	refractive index [2]
CCCCCCCCn1cc[n+](C)c1.O=S(=O)([N-]S(=O)(=O)C(F)(F)F)C(F)(F)F	1320.76 ± 12	1.43331 ± 0.0012
